Test results published in publication PMC2967433 (Bioconjugate chemistry, 2010).

What was measured:
[1] = molecular target: T1, FK506 Binding Protein 12 kDa (FKBP12) (Homo sapiens, UniProt P62942); test: TR-FRET competition with fluorescein-labeled SLF
[2] = molecular target: T1, FK506 Binding Protein 12 kDa (FKBP12); test: TR-FRET tracer binding

T1 sequence (P62942 2-108): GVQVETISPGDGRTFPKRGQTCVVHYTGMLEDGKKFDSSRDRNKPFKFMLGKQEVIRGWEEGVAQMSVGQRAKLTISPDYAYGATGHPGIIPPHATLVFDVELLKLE

## CCC(C)(C)C(=O)C(=O)N1CCCC[C@H]1C(=O)O[C@H](CCc1ccc(OC)c(OC)c1)c1cccc(OCC(=O)O)c1 [SLF-OH]
[1]
  IC50: 200 nM

## SLF-Fl
[2]
  Kd: 30 nM
